Data from patent US11999727B2 (Tango Therapeutics, Inc., priority 2020, dated 2024).
Where two headings read alike, the source gives them in different places.

How the values were obtained:
[1] = target: T1, PRMT5 (Homo sapiens, UniProt O14744); assay: PRMT5 biochemical IC50 assay with MTA as cofactor; details: PRMT5, MTA as cofactor; read-out: MTA IC50
T1 construct: purchased Viva (custom protein)

[2] = target: T1, PRMT5; assay: PRMT5 biochemical IC50 assay with no cofactor; details: PRMT5, no cofactor
From the text: Table 1 indicates IC50 values (μM) against PRMT5 for exemplary compounds in the presence of SAM as cofactor, with no cofactor, and with MTA as cofactor, respectively (columns 4-6). […] Ki values can be calculated from the IC50 values as described in the Examples section. As detailed in the Examples section, for the assay performed in the presence of SAM, IC50=Ki×1.5 (Ki=IC50/1.5).

[3] = tested on: HAP1 MTAP-deleted cell line; assay: Viability assay, MTAP-deleted cell line; assay type: cell-based; details: Homo sapiens, HAP1, viability assay, MTAP-deleted cell line; read-out: HAP1 MTAP deleted viability
From the text: Table 1 additionally indicates IC50 values in a viability assay for the MTAP-deleted cell line (column 10), indicating the effect of treatment with compound on cell survival.

[4] = target: T1, PRMT5; assay: PRMT5 biochemical IC50 assay with SAM as cofactor; details: PRMT5, SAM as cofactor; read-out: SAM IC50
[5] = tested on: HAP1 MTAP-intact cell line; assay: SDMA in-cell western assay, HAP1 MTAP-intact; assay type: cell-based; details: Homo sapiens
Summary of the method: (§1)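 MTAP-null vs endogenous-MTAP HAP1 isogenic cells; in-cell western SDMA readout; IC50 per line.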

[6] = tested on: HAP1 MTAP-deleted cell line; assay: SDMA in-cell western assay, HAP1 MTAP-deleted; assay type: cell-based; details: for IC50: Homo sapiens; for MTAP intact/deleted ratio: SDMA in-cell western
Summary of the method: as §1

[7] = HAP1, SDMA in-cell western, HAP1 MTAP-intact, read-out: MTAP HAP1 intact IC50
[8] = HAP1, SDMA in-cell western, HAP1 MTAP-deleted, read-out: HAP1 MTAP deleted IC50
[9] = IC50 ratio HAP1 MTAP-intact / HAP1 MTAP-deleted
[10] = HAP1, SDMA in-cell western, HAP1 MTAP-deleted, read-out: HAP 1 MTAP deleted IC50
[11] = IC50 ratio HAP1 MTAP-intact vs HAP1 MTAP-deleted

T1 sequence (O14744 whole entry): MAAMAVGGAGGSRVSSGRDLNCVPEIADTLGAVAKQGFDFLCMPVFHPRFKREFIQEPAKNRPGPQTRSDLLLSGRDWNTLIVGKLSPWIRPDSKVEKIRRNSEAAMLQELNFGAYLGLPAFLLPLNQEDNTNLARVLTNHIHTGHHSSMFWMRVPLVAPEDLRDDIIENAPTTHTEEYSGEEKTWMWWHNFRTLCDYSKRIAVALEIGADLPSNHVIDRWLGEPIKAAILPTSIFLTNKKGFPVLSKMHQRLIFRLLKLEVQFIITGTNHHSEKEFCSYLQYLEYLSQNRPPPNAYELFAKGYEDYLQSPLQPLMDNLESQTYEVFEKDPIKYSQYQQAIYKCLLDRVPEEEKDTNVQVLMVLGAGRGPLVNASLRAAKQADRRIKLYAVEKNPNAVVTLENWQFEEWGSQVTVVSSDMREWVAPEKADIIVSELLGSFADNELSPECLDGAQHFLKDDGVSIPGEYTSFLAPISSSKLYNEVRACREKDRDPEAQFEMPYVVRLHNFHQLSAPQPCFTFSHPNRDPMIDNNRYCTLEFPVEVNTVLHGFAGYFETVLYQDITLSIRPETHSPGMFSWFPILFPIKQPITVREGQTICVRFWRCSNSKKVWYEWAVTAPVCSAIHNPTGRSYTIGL
T1 sequence (Q9BQA1 whole entry partner): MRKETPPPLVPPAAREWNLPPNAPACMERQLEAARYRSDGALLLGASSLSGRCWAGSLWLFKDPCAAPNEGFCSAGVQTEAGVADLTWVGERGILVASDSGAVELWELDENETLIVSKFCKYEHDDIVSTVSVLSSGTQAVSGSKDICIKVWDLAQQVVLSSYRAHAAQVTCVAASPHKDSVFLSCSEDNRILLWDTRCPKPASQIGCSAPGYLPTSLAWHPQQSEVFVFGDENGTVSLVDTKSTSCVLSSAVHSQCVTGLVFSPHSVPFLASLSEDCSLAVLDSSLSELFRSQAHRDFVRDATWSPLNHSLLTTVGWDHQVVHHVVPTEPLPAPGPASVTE

Cc1cncc(NC(=O)C(=O)N2C[C@@H](C)CC[C@@H]2c2cccs2)c1 (single isomer, unassigned) [Compound 76]
IC50 [1]: > 500 nM
IC50 ([2]; read-out: No Cofactor/ rel IC50): > 500 nM
IC50 [3]: > 10 µM
IC50 [4]: > 500 nM
IC50 [5, 7]: > 1000 nM

CNc1cccc([C@H]2CC[C@H](C)CN2C(=O)C(=O)Nc2cncc(C(N)=O)c2)c1 (single isomer, unassigned) [Compound 321]
IC50 [1]: > 500 nM
IC50 ([2]; read-out: No Cofactor/rel IC50): > 500 nM
IC50 [4]: > 500 nM
IC50 [6, 8]: > 1000 nM
MTAP intact/deleted ratio [6, 9]: C (an IC50 ratio of less than 3 fold)
IC50 [5, 7]: > 1000 nM

COc1ncc(NC(=O)C(=O)N2C[C@@H](C)CC[C@H]2c2ccccc2)cc1C(N)=O (single isomer, unassigned) [Compound 322]
IC50 [1]: > 500 nM
IC50 ([2]; read-out: No Cofactor/rel IC50): > 500 nM
IC50 [4]: > 500 nM
IC50 ([6]; HAP1, read-out: HAP1 MTAP deleted IC50): > 1000 nM
MTAP intact/deleted ratio [6, 9]: B (an IC50 ratio greater than or equal to 3 fold but lower than 10 fold)
IC50 ([5]; HAP1, read-out: MTAP HAP1 intact IC50): > 1000 nM

Cc1cc([C@H]2CC[C@H](C)CN2C(=O)C(=O)Nc2cncc(C(N)=O)c2)cc(C)c1O (single isomer, unassigned) [Compound 326]
IC50 [1]: > 500 nM
IC50 ([2]; read-out: No Cofactor/rel IC50): > 500 nM
IC50 [4]: > 500 nM
IC50 [6, 8]: > 1000 nM
MTAP intact/deleted ratio [6, 9]: C (an IC50 ratio of less than 3 fold)
IC50 [5, 7]: > 1000 nM

CC(=O)N1CCC(c2cccc([C@@H]3CC[C@@H](C)CN3C(=O)C(=O)Nc3cnc(N)c(C)c3)c2)CC1 (single isomer, unassigned) [Compound 331]
IC50 [1]: > 500 nM
IC50 ([2]; read-out: No Cofactor/rel IC50): > 500 nM
IC50 [4]: > 500 nM
IC50 [6, 8]: > 1000 nM
MTAP intact/deleted ratio [6, 9]: C (an IC50 ratio of less than 3 fold)
IC50 [5, 7]: > 1000 nM

CC(=O)N1CCC(c2cccc([C@H]3CC[C@H](C)CN3C(=O)C(=O)Nc3cncc(C(N)=O)c3)c2)CC1 (single isomer, unassigned) [Compound 332]
IC50 [1]: > 500 nM
IC50 ([2]; read-out: No Cofactor/rel IC50): > 500 nM
IC50 [4]: > 500 nM
IC50 [6, 8]: > 1000 nM
MTAP intact/deleted ratio [6, 9]: C (an IC50 ratio of less than 3 fold)
IC50 [5, 7]: > 1000 nM

Cc1cc(NC(=O)C(=O)N2CCCC[C@@H]2C2CCCC2)cnc1N (single isomer, unassigned) [Compound 336]
IC50 [1]: > 500 nM
IC50 ([2]; read-out: No Cofactor/rel IC50): > 500 nM
IC50 [4]: > 500 nM
IC50 [6, 8]: > 1000 nM
MTAP intact/deleted ratio [6, 9]: C (an IC50 ratio of less than 3 fold)
IC50 [5, 7]: > 1000 nM

Cc1cc(NC(=O)C(=O)N2C[C@H](C)C[C@H](C)[C@H]2c2ccccc2)cnc1N (single isomer, unassigned) [Compound 343]
IC50 [1]: > 500 nM
IC50 ([2]; read-out: No Cofactor/rel IC50): > 500 nM
IC50 [4]: > 500 nM
IC50 [6, 8]: > 1000 nM
MTAP intact/deleted ratio [6, 9]: C (an IC50 ratio of less than 3 fold)
IC50 [5, 7]: > 1000 nM

COc1ncc(NC(=O)C(=O)N2C[C@@H](C)CC[C@H]2C2CCCCC2)cc1C(N)=O (single isomer, unassigned) [Compound 371]
IC50 [1]: > 500 nM
IC50 ([2]; read-out: No Cofactor/rel IC50): > 500 nM
IC50 [4]: > 500 nM
IC50 [6, 8]: > 1000 nM
MTAP intact/deleted ratio [6, 9]: C (an IC50 ratio of less than 3 fold)
IC50 [5, 7]: > 1000 nM

C[C@@H]1CC[C@@H](c2csc3ccccc23)N(C(=O)C(=O)Nc2cncc(C(N)=O)c2)C1 (single isomer, unassigned) [Compound 463]
IC50 [1]: < 50 nM
IC50 ([2]; read-out: No Cofactor/rel IC50): 50 to 500 nM
IC50 [4]: 50 to 500 nM
IC50 [6, 8]: 100 to 1000 nM
MTAP intact/deleted ratio [6, 9]: A (an IC50 ratio greater than or equal to 10 fold)
IC50 [5, 7]: > 1000 nM

C[C@H]1CC[C@H](c2cc(F)c(F)c(Cl)c2)N(C(=O)C(=O)Nc2cncc(C(N)=O)c2)C1 (single isomer, unassigned) [Compound 846]
IC50 [1]: > 500 nM
IC50 ([2]; read-out: No Cofactor/rel IC50): > 500 nM
IC50 [4]: > 500 nM
IC50 [6, 8]: > 1000 nM
MTAP intact/deleted ratio [6, 9]: C (an IC50 ratio of less than 3 fold)
IC50 [5, 7]: > 1000 nM

COc1ncc(NC(=O)C(=O)N2C[C@@H](C)C(F)(F)C[C@@H]2c2ccc(F)cc2)cc1C(N)=O (single isomer, unassigned) [Compound 1047]
IC50 [1]: > 500 nM
IC50 ([2]; read-out: No Cofactor/rel IC50): > 500 nM
IC50 [4]: > 500 nM
IC50 [6, 10]: > 1000 nM
MTAP intact/deleted ratio [6, 9]: C (an IC50 ratio of less than 3 fold)
IC50 [5, 7]: > 1000 nM

Cc1cc(NC(=O)C(=O)N2C[C@H](C)CC[C@H]2c2cc[nH]n2)cnc1N (single isomer, unassigned) [Compound 1050]
IC50 [1]: > 500 nM
IC50 ([2]; read-out: No Cofactor/rel IC50): > 500 nM
IC50 [4]: > 500 nM
IC50 [6, 10]: > 1000 nM
MTAP intact/deleted ratio [6, 9]: C (an IC50 ratio of less than 3 fold)
IC50 [5, 7]: > 1000 nM

COc1ncc(NC(=O)C(=O)N2C[C@H](C)CC[C@H]2c2ccc3nn(C)cc3c2)cc1C(N)=O (single isomer, unassigned) [Compound 1051]
IC50 [1]: > 500 nM
IC50 ([2]; read-out: No Cofactor/rel IC50): > 500 nM
IC50 [4]: > 500 nM
IC50 [6, 10]: > 1000 nM
MTAP intact/deleted ratio [6, 9]: B (an IC50 ratio greater than or equal to 3 fold but lower than 10 fold)
IC50 [5, 7]: > 1000 nM

Cc1cc(NC(=O)C(=O)N2C[C@@H](C)CC[C@H]2C23CC(C(N)=O)(C2)C3)cnc1N (single isomer, unassigned) [Compound 1053]
IC50 [1]: 50 to 500 nM
IC50 ([2]; read-out: No Cofactor/rel IC50): > 500 nM
IC50 [4]: > 500 nM
IC50 [6, 10]: 100 to 1000 nM
MTAP intact/deleted ratio [6, 9]: A (an IC50 ratio greater than or equal to 10 fold)
IC50 [5, 7]: > 1000 nM

CCc1cc(NC(=O)C(=O)N2C[C@H](C)CC[C@H]2c2cc3cn[nH]c3s2)cnc1N (single isomer, unassigned) [Compound 1055]
IC50 [1]: > 500 nM
IC50 ([2]; read-out: No Cofactor/rel IC50): > 500 nM
IC50 [4]: > 500 nM
IC50 [6, 10]: > 1000 nM
MTAP intact/deleted ratio [6, 9]: B (an IC50 ratio greater than or equal to 3 fold but lower than 10 fold)
IC50 [5, 7]: > 1000 nM

COc1ncc(NC(=O)C(=O)N2C[C@@H](C)CC[C@@H]2c2ccc3nn(C)cc3c2)cc1C(N)=O (single isomer, unassigned) [Compound 1059]
IC50 [1]: < 50 nM
IC50 ([2]; read-out: No Cofactor/rel IC50): 50 to 500 nM
IC50 [4]: 50 to 500 nM
IC50 [6, 10]: < 100 nM
MTAP intact/deleted ratio [6, 9]: A (an IC50 ratio greater than or equal to 10 fold)
IC50 [5, 7]: > 1000 nM

Cc1cc(NC(=O)C(=O)N2C[C@@H](C)CC[C@@H]2C23CC(C(N)=O)(C2)C3)cnc1N (single isomer, unassigned) [Compound 1061]
IC50 [1]: > 500 nM
IC50 ([2]; read-out: No Cofactor/rel IC50): > 500 nM
IC50 [4]: > 500 nM
IC50 [6, 8]: > 1000 nM
MTAP intact/deleted ratio [6, 11]: B (an IC50 ratio greater than or equal to 3 fold but lower than 10 fold)
IC50 [5, 7]: > 1000 nM

COc1ncc(NC(=O)C(=O)N2C[C@H](C)C(F)(F)C[C@H]2c2ccc(F)cc2)cc1C(N)=O (single isomer, unassigned) [Compound 1068]
IC50 [1]: < 50 nM
IC50 ([2]; read-out: No Cofactor/rel IC50): 50 to 500 nM
IC50 [4]: 50 to 500 nM
IC50 [6, 8]: < 100 nM
MTAP intact/deleted ratio [6, 11]: A (an IC50 ratio greater than or equal to 10 fold)
IC50 [5, 7]: > 1000 nM

Cc1cc(NC(=O)C(=O)N2C[C@H](C)CC[C@H]2C23CC(C(N)=O)(C2)C3)cnc1N (single isomer, unassigned) [Compound 1070]
IC50 [1]: > 500 nM
IC50 ([2]; read-out: No Cofactor/rel IC50): > 500 nM
IC50 [4]: > 500 nM
IC50 [6, 8]: > 1000 nM
MTAP intact/deleted ratio [6, 11]: B (an IC50 ratio greater than or equal to 3 fold but lower than 10 fold)
IC50 [5, 7]: > 1000 nM

Cc1cc(NC(=O)C(=O)N2C[C@@H](C)CC[C@@H]2c2cc[nH]n2)cnc1N (single isomer, unassigned) [Compound 1071]
IC50 [1]: < 50 nM
IC50 ([2]; read-out: No Cofactor/rel IC50): 50 to 500 nM
IC50 [4]: 50 to 500 nM
IC50 [6, 8]: > 1000 nM
MTAP intact/deleted ratio [6, 11]: C (an IC50 ratio of less than 3 fold)
IC50 [5, 7]: > 1000 nM

CCc1cc(NC(=O)C(=O)N2C[C@@H](C)CC[C@@H]2c2cc3cn[nH]c3s2)cnc1N (single isomer, unassigned) [Compound 1075]
IC50 [1]: < 50 nM
IC50 ([2]; read-out: No Cofactor/rel IC50): < 50 nM
IC50 [4]: 50 to 500 nM
IC50 [6, 8]: < 100 nM
MTAP intact/deleted ratio [6, 11]: A (an IC50 ratio greater than or equal to 10 fold)
IC50 [5, 7]: 100 to 1000 nM

COc1ncc(NC(=O)C(=O)N2C[C@@H](C)CC[C@@H]2c2ccc(F)cc2)cc1C(F)F [Compound 1057, N-[5-(Difluoromethyl)-6-methoxy-3-pyridyl]-2-[(2R,5S)-2-(4-fluorophenyl)-5-methyl-1-piperidyl]-2-oxo-acetamide]
IC50 [1]: 50 to 500 nM
IC50 ([2]; read-out: No Cofactor/rel IC50): 50 to 500 nM
IC50 [4]: > 500 nM
IC50 [6, 10]: > 1000 nM
MTAP intact/deleted ratio [6, 9]: B (an IC50 ratio greater than or equal to 3 fold but lower than 10 fold)
IC50 [5, 7]: > 1000 nM
